Laboratory results as given in patent US9119396B2, “Method for promoting plant growth” (SUMITOMO CHEMICAL COMPANY, LIMITED, priority 2011, dated 2015).

Experiments:
Type in all cases: in vivo
[1] = test system: Corn (cultivar: Kuromochi); test: Test Example 3: reduction of low-temperature stress by treatment of corn seeds; conditions: corn seed treatment, low-temperature stress 2.5±1° C. 4 days, then 4 days at 27° C.
Description: Evaluation Test for Reduction of Low-Temperature Stress by Treatment of Corn Seeds Corn (cultivar: Kuromochi) A blank slurry solution containing 10% (V/V) color coat red (Becker Underwood, Inc.), 10% (V/V) CF-Clear (Becker Underwood, Inc.) and 1.66% Maxim 4FS (Syngenta) was prepared. A slurry solution was prepared by dissolving the present compound 1 in the blank slurry solution such that 0.5 g, 5 g or 50 g of the compound is applied to each 100 kg of corn seeds. In a 50-ml centrifuge tube (manufactured by BD Japan), 0.35 ml of the slurry solution was placed for each 14.4 g of corn seeds and stirred until the solution was dried, thereby coating the seeds. In addition, seeds were coated with the blank slurry solution and used as seeds for a non-treated group. One of the treated corn seeds was sown in culture soil (AISAI) in each pot (55 mm in diameter×58 mm in height) and cultivated for 10 days under the conditions of a temperature of 27° C., an illuminance of 5,000 lux, and a day length of 16 hours. The grown seedlings were used for the test. The pots at 10 days after the sowing were placed into an artificial weather control room (VHT-2-15P-NC2-S, manufactured by Nippon Medical & Chemical Instruments Co., Ltd) and cultivated for 4 days under the following conditions: • temperature: 2.5±1° C., day length: 16 hours, and illuminance: 5,000 lux. <Evaluation Method> After the low-temperature stress treatment, the plants were cultivated for 4 days under the conditions of a temperature of 27° C., an illuminance of 5,000 lux, and a day length of 16 hours. Then, the fresh weight of the overground part of the plants was measured. The experiment was performed in five replications for each treatment condition and the average weight per individual was calculated. As a result, the fresh weight of the overground part of plants in the treated group of applying 0.5 g, 5 g or 50 g of the present compound 1 to each 100 kg of seeds was much heavier than that in the non-treated group.

[2] = test system: Rice (cultivar: Nipponbare); test: Test Example 5: reduction of low-temperature stress by treatment of rice seeds; conditions: rice seed treatment, low-temperature stress 4° C. 5 days, then 12 days at 25° C.
Description: Evaluation Test for Reduction of Low-Temperature Stress by Treatment of Rice Seeds Rice (cultivar: Nipponbare) A blank slurry solution containing 5% (V/V) color coat red (Becker Underwood, Inc.), 5% (V/V) CF-Clear (Becker Underwood, Inc.) and 1% Maxim XL (Syngenta) was prepared. A slurry solution was prepared by dissolving the present compound 1 in the blank slurry solution such that 5 g or 50 g of the compound is applied to each 100 kg of rice seeds. In a 15-ml centrifuge tube (manufactured by AGC TECHNO GLASS CO., LTD.), 0.1 ml of the slurry solution was placed for each 3 g of rice seeds and stirred until the solution was dried, thereby coating the seeds. In addition, seeds were coated with the blank slurry solution and used as seeds for a non-treated group. A filter paper was placed on the bottoms of the holes of a plug tray having 406 holes, and the rice seeds treated above were sown on the filter paper. […] Twelve (12) days after the treatment, the fresh weight of the overground part of each plant was measured. The experiment was performed in four replications in each treated group and the average value was calculated. […]

[3] = test system: Rice (cultivar: Nipponbare); test: Test Example 6: reduction of drought stress by immersion treatment of rice; conditions: hydroponic solution 10 ppm for 14 days, drought stress 2 days, then 14 days cultivation
Description: Evaluation Test for Reduction of Drought Stress by Immersion Treatment of Rice Rice (cultivar: Nipponbare) A necessary amount of rice seeds was immersed in an aqueous solution of 1,000 ppm of Benlate, and incubated at 30° C. overnight under dark conditions. The aqueous solution of Benlate was replaced with distilled water, and the seeds were further incubated at 30° C. overnight under dark conditions. A filter paper was placed on the holes of a plug tray having 406 holes, and the rice seeds treated as above were sown on the filter paper. To the rice seeds were added a kimura B solution for hydroponics (see Plant Science 119: 39-47 (1996)) at ½ concentration and a 1/10,000 volume of a DMSO solution containing the present compound 1 at 100,000 ppm, and cultivated for 14 days under the conditions of a temperature of 28° C. in daytime/23° C. in night, a humidity of 60%, an illuminance of 8500 lux, and a day length of 12 hours. […] Fourteen (14) days after the treatment, the fresh weight of the overground parts of five test plants in each treated group was measured. The experiment was performed in three replications in each treated group and the average value was calculated. […]

Measured: fresh weight of the overground part of plants vs non-treated group

COC(=O)c1cc2cc(C(F)(F)F)ccc2s1 [compound 1]
much heavier: [1]; 0.5 g per 100 kg of seeds | [1]; 5 g per 100 kg of seeds | [1]; 50 g per 100 kg of seeds | [2]; 5 g per 100 kg of seeds | [2]; 50 g per 100 kg of seeds | [3]
